Test results published in patent US10421761B2, “Compounds for kinase modulation, and indications therefor” (Plexxikon Inc., priority 2013, dated 2019).

Test system: B9 cells
Conditions: Repl. 1; B9 cells

With `CCCS(=O)(=O)Nc1ccc(F)c(C(=O)c2c[nH]c3ncc(-c4ccc(Cl)cc4)cc23)c1F` [vemurafenib] the “probe 1426300_at response, Alcam (activated leukocyte cell adhesion molecule)” value was 2.35, the “probe 1426306_a_at response, LOC100046560 /// Maged2 (similar to melanoma antigen family D, 2 /// melanoma antigen, family D, 2)” value was 2.18 and the “probe 1426708_at response, Antxr2 (anthrax toxin receptor 2)” value was 2.19. The “probe 1426806_at response, Obfc2a (oligonucleotide/oligosaccharide-binding fold containing 2A)” value was 2.33, the “probe 1426848_at response, LOC100047481 /// Sec24b (similar to SEC24 related gene family, member B (S. cerevisiae) /// Sec24 related gene family, member B (S. cerevisiae))” value was 0.69 and the “probe 1426972_at response, Sec24d (Sec24 related gene family, member D (S. cerevisiae))” value was 2.06. The “probe 1427278_at response, Clip4 (CAP-GLY domain containing linker protein family, member 4)” value was 1.98, the “probe 1427364_a_at response, Odc1 (ornithine decarboxylase, structural 1)” value was 2.73 and the “probe 1427512_a_at response, Lama3 (laminin, alpha 3)” value was 2.61. The “probe 1427527_a_at response, Pthlh (parathyroid hormone-like peptide)” value was 2.73, the “probe 1427885_at response, Pold4 (polymerase (DNA-directed), delta 4)” value was 2.20 and the “probe 1428114_at response, Slc14a1 (solute carrier family 14 (urea transporter), member 1)” value was 2.61. For the same compound, the “probe 1428195_at response, Ahcyl2 (S-adenosylhomocysteine hydrolase-like 2)” value was 2.42, the “probe 1428228_at response, Pgm3 (phosphoglucomutase 3)” value was 2.18 and the “probe 1428419_at response, 5430411K18Rik (RIKEN cDNA 5430411K18 gene)” value was 2.16. For the same compound, the “probe 1428851_at response, 1300014I06Rik (RIKEN cDNA 1300014I06 gene)” value was 2.30, the “probe 1429700_at response, 3110040M04Rik (RIKEN cDNA 3110040M04 gene)” value was 3.18 and the “probe 1429844_at response, 2310043J07Rik (RIKEN cDNA 2310043J07 gene)” value was 0.52. For the same compound, the “probe 1430010_at response, Ncapd2 (non-SMC condensin I complex, subunit D2)” value was 0.43, the “probe 1430567_at response, Spink5 (serine peptidase inhibitor, Kazal type 5)” value was 0.46 and the “probe 1430623_s_at response, Obfc2a (oligonucleotide/oligosaccharide-binding fold containing 2A)” value was 2.11. The “probe 1430700_a_at response, Pla2g7 (phospholipase A2, group VII (platelet-activating factor acetylhydrolase, plasma))” value was 2.36, the “probe 1431416_a_at response, Jam2 (junction adhesion molecule 2)” value was 2.12 and the “probe 1431422_a_at response, Dusp14 (dual specificity phosphatase 14)” value was 2.14. The “probe 1431611_a_at response, Cadm1 (cell adhesion molecule 1)” value was 2.15, the “probe 1431688_at response, LOC73899 (hypothetical LOC73899)” value was 2.56 and the “probe 1431691_a_at response, Rab31 (RAB31, member RAS oncogene family)” value was 1.98. For the same compound, the “probe 1433909_at response, Syt17 (synaptotagmin XVII)” value was 2.02, the “probe 1434059_at response, B230312A22Rik (RIKEN cDNA B230312A22 gene)” value was 2.26 and the “probe 1434092_at response, Atg9b (ATG9 autophagy related 9 homolog B (S. cerevisiae))” value was 2.04. The “probe 1434109_at response, Sh3bgrl2 (SH3 domain binding glutamic acid-rich protein like 2)” value was 2.50, the “probe 1434252_at response, Tmcc3 (transmembrane and coiled coil domains 3)” value was 1.99 and the “probe 1434601_at response, Amigo2 (adhesion molecule with Ig like domain 2)” value was 2.11. The “probe 1434957_at response, Cdon (cell adhesion molecule-related/down-regulated by oncogenes)” value was 0.44, the “probe 1435066_at response, Pitpnc1 (phosphatidylinositol transfer protein, cytoplasmic 1)” value was 2.04 and the “probe 1435176_a_at response, Id2 (inhibitor of DNA binding 2)” value was 0.44. For the same compound, the “probe 1435330_at response, Pyhin1 (pyrin and HIN domain family, member 1)” value was 2.34, the “probe 1435331_at response, Pyhin1 (pyrin and HIN domain family, member 1)” value was 3.91 and the “probe 1435460_at response, Prkg2 (protein kinase, cGMP-dependent, type II)” value was 2.07. For the same compound, the “probe 1435695_a_at response, Ggct (gamma-glutamyl cyclotransferase)” value was 2.16, the “probe 1436100_at response, Sh2d5 (SH2 domain containing 5)” value was 2.12 and the “probe 1436329_at response, Egr3 (early growth response 3)” value was 2.75. For the same compound, the “probe 1436584_at response, Spry2 (sprouty homolog 2 (Drosophila))” value was 3.28, the “probe 1436659_at response, Dclk1 (doublecortin-like kinase 1)” value was 2.44 and the “probe 1436917_s_at response, Gpsm1 (G-protein signalling modulator 1 (AGS3-like, C. elegans))” value was 2.22. The “probe 1436944_x_at response, Pisd /// Pisd-ps1 ///Pisd-ps3 (phosphatidylserine decarboxylase /// phosphatidylserine decarboxylase, pseudogene 1 /// phosphatidylserine decarboxylase, pseudogene 3)” value was 0.53, the “probe 1437092_at response, Clip4 (CAP-GLY domain containing linker protein family, member 4)” value was 2.37 and the “probe 1437100_x_at response, Pim3 (proviral integration site 3)” value was 2.03. The “probe 1437199_at response” value was 4.17, the “probe 1437271_at response, Clcf1 (cardiotrophin-like cytokine factor 1)” value was 2.09 and the “probe 1437486_at response, Gprc5a (G protein-coupled receptor, family C, group 5, member A)” value was 2.49. For the same compound, the “probe 1437982_x_at response, Cox15 (COX15 homolog, cytochrome c oxidase assembly protein (yeast))” value was 0.51, the “probe 1438038_at response, 4930402H24Rik (RIKEN cDNA 4930402H24 gene)” value was 2.10 and the “probe 1438664_at response, Prkar2b (protein kinase, cAMP dependent regulatory, type II beta)” value was 0.44. The “probe 1438699_at response, Srd5a1 (steroid 5 alpha-reductase 1)” value was 1.89, the “probe 1439016_x_at response, Sprr2a (small proline-rich protein 2A)” value was 0.40 and the “probe 1439109_at response, Ccdc68 (coiled-coil domain containing 68)” value was 0.45. The “probe 1439434_x_at response, Sh2d5 (SH2 domain containing 5)” value was 2.06, the “probe 1439797_at response, Ppard (peroxisome proliferator activator receptor delta)” value was 2.09 and the “probe 1439878_at response, Ivl (involucrin)” value was 3.09. The “probe 1440169_x_at response, Ifnar2 (interferon (alpha and beta) receptor 2)” value was 0.53, the “probe 1440559_at response, Hmga2-ps1 (high mobility group AT-hook 2, pseudogene 1)” value was 3.39 and the “probe 1441315_s_at response, Slc19a2 (solute carrier family 19 (thiamine transporter), member 2)” value was 2.46. For the same compound, the “probe 1441917_s_at response, Tmem40 (transmembrane protein 40)” value was 2.00, the “probe 1442350_at response” value was 2.22 and the “probe 1442363_at response, 1110012J17Rik (RIKEN cDNA 1110012J17 gene)” value was 2.08. For the same compound, the “probe 1443536_at response, Slc7a11 (solute carrier family 7 (cationic amino acid transporter, y+ system), member 11)” value was 0.39, the “probe 1445758_at response” value was 0.47 and the “probe 1446791_at response, Pi15 (peptidase inhibitor 15)” value was 1.12. The “probe 1447661_at response” value was 0.53, the “probe 1447845_s_at response, Vnn1 (vanin 1)” value was 0.46 and the “probe 1448364_at response, Ccng2 (cyclin G2)” value was 2.30. The “probe 1448532_at response, Prl8a9 (prolactin family8, subfamily a, member 9)” value was 2.70, the “probe 1448562_at response, Upp1 (uridine phosphorylase 1)” value was 2.68 and the “probe 1448613_at response, Ecm1 (extracellular matrix protein 1)” value was 2.00. The “probe 1448617_at response, Cd53 (CD53 antigen)” value was 2.24, the “probe 1448810_at response, Gne (glucosamine)” value was 2.16 and the “probe 1448855_at response, Rassf1 (Ras association (RalGDS/AF-6) domain family member 1)” value was 1.97. For the same compound, the “probe 1448894_at response, Akr1b8 (aldo-keto reductase family 1, member B8)” value was 2.01, the “probe 1448978_at response, Ngef (neuronal guanine nucleotide exchange factor)” value was 3.21 and the “probe 1449038_at response, Hsd11b1 (hydroxysteroid 11-beta dehydrogenase 1)” value was 2.96. For the same compound, the “probe 1449125_at response, Tnfaip8l1 (tumor necrosis factor, alpha-induced protein 8-like 1)” value was 2.14, the “probe 1449133_at response, Sprr1a (small proline-rich protein 1A)” value was 2.53 and the “probe 1449268_at response, Gfpt1 (glutamine fructose-6-phosphate transaminase 1)” value was 2.82. The “probe 1449297_at response, Casp12 (caspase 12)” value was 0.41, the “probe 1449334_at response, Timp3 (tissue inhibitor of metalloproteinase 3)” value was 0.43 and the “probe 1449367_at response, Trex2 (three prime repair exonuclease 2)” value was 4.45. The “probe 1449408_at response, Jam2 (junction adhesion molecule 2)” value was 2.04, the “probe 1449545_at response, Fgf18 (fibroblast growth factor 18)” value was 3.88 and the “probe 1449965_at response, Mcpt8 (mast cell protease 8)” value was 2.83. For the same compound, the “probe 1450241_a_at response, Evi2a (ecotropic viral integration site 2a)” value was 4.78, the “probe 1450262_at response, Clcf1 (cardiotrophin-like cytokine factor 1)” value was 2.62 and the “probe 1450276_a_at response, Scin (scinderin)” value was 2.73. The “probe 1450376_at response, Mxi1 (Max interacting protein 1)” value was 2.20, the “probe 1450430_at response, Mrc1 (mannose receptor, C type 1)” value was 2.66 and the “probe 1450501_at response, Itga2 (integrin alpha 2)” value was 3.02. For the same compound, the “probe 1450791_at response, Nppb (natriuretic peptide precursor type B)” value was 4.55, the “probe 1450976_at response, Ndrg1 (N-myc downstream regulated gene 1)” value was 2.23 and the “probe 1451006_at response, Xdh (xanthine dehydrogenase)” value was 0.40. The “probe 1451308_at response, Elovl4 (elongation of very long chain fatty acids (FEN1/Elo2, SUR4/Elo3, yeast)-like 4)” value was 2.50, the “probe 1451446_at response, Antxr1 (anthrax toxin receptor 1)” value was 0.41 and the “probe 1451501_a_at response, Ghr (growth hormone receptor)” value was 2.21. For the same compound, the “probe 1451529_at response, Sgtb (small glutamine-rich tetratricopeptide repeat (TPR)-containing, beta)” value was 1.91, the “probe 1451798_at response, Il1rn (interleukin 1 receptor antagonist)” value was 3.05 and the “probe 1452058_a_at response, Rnfl1 (ring finger protein 11)” value was 2.07. The “probe 1452087_at response, Epsti1 (epithelial stromal interaction 1 (breast))” value was 2.20, the “probe 1452203_at response, Obfc2a (oligonucleotide/oligosaccharide-binding fold containing 2A)” value was 2.07 and the “probe 1452521_a_at response, Plaur (plasminogen activator, urokinase receptor)” value was 2.33. For the same compound, the “probe 1453055_at response, Sema6d (sema domain, transmembrane domain (TM), and cytoplasmic domain, (semaphorin) 6D)” value was 3.32, the “probe 1453278_a_at response, Clip4 (CAP-GLY domain containing linker protein family, member 4)” value was 2.00 and the “probe 1453345_at response, Nipal1 (NIPA-like domain containing 1)” value was 3.86. The “probe 1454048_a_at response, 4931408A02Rik /// LOC630876 (RIKEN cDNA 4931408A02 gene /// similar to Protein C21orf63 homolog precursor)” value was 0.40, the “probe 1454254_s_at response, 1600029D21Rik (RIKEN cDNA 1600029D21 gene)” value was 2.37 and the “probe 1454649_at response, Srd5a1 (steroid 5 alpha-reductase 1)” value was 2.02. For the same compound, the “probe 1454699_at response, LOC100047324 /// Sesn1 (similar to Sesn1 protein /// sestrin 1)” value was 0.50, the “probe 1454710_at response, Spink2 (serine peptidase inhibitor, Kazal type 2)” value was 2.39 and the “probe 1454780_at response, Galntl4 (UDP-N-acetyl-alpha-D-galactosamine:polypeptide N-acetylgalactosaminyltransferase-like 4)” value was 0.42. The “probe 1454877_at response, Sertad4 (SERTA domain containing 4)” value was 0.40.
